According to patent publication US20090028847A1, “MULTIPLE MYELOMA AND AL AMYLOID IMMUNOTHERAPY TARGETING IMMUNOGLOBULIN LIGHT CHAINS AND USES THEREOF” (TRUSTEES OF BOSTON UNIVERSITY, priority 2007, published 2009):

Legend:
[1] = test system: B cell lymphoblastoma (JY) cells pulsed with peptide; test: Chromium-release killing assay with CTL from peptide-immunized HHD mice, peptide-pulsed JY targets; assay type: ex vivo; details: for CTL lysis of peptide-pulsed target cells: T cells of HHD mice immunized with the peptide, not with negative control peptide
Method: (§1) Mice: HHD mice on […] background, transgenic for human MHC Class I (α1 and α2 domains from HLAA*0201, α3 domain from […]) and knockout of H2-D^b (mouse MHC Class I).
(§2) Immunizations: 200 μg peptide plus 200 μg HBVc “helper” peptide (to elicit CD4+ T cell help), emulsified in […] Freud's Adjuvant (IFA) is used to immunize the HHD mice subcutaneously in the lower abdominal area.
(§3) Mouse T Cell Culture: Spleens were harvested from the mice and dissociated using sterile frosted glass slides to yield single-cell suspension. Spleenocytes are plated at approximately 1×10^6 cells/ml and 10% FBS supplemented with L-glutamine, non-essential amino acids and β2-mercaptoethanol. Ex vivo cells were stimulated with 10 μg/ml peptide and fed every 2-3 days with medium and 2 ng/ml rIL-2 for 7-10 days.
Cell Lines: Human cell lines which naturally express the HLAA*0201 allele of MHC Class I are grown in RPMI 1640 and 10% FBS supplemented with L-glutamine. Cell lines include the JY and U66 lymphobastoma cell lines of B cell origin and the T2 cell line of T cell origin.
(§4) Killing Assay: Target cell lines are loaded with radioactive sodium chromate (^51Cr) and pulsed with 20 μg/ml peptide or as a negative control peptide, flu matrix protein MP-58. Spleen cells are plated with targets at various effector target ratios and incubated at 37° C., 5% CO2 overnight. Supernatants are harvested from each well and assayed for radioactive chromium indicating release from lysed cells. % specific lysis was determined by subtracting the control minimum release from experimental wells and dividing by maximum-minimum release.
Statistics: Statistical analysis was performed with Statview. Data from killing assays of a minimum of three mice are presented as means ± standard errors (SE). ANOVA was used to determine the statistical significance compared to the negative control peptide.

HLA-A2 = HLA-A2 (Homo sapiens, UniProt P04439, D140Y/D185E/D98H/E176V/E277Q/G131W/G231S/I119V/I121R/I166T/I218V/L300P/L318F/N151K/N90K/P208A/P217A/Q86G/Q94H/R138H/R169H/T345S); test: Cell-based fluorescence peptide/MHC (HLA-A2) binding and stability assay; details: for peptide binding to HLA-A2: FIG. 1, fluorescence shift (FL1) in presence vs absence of peptide
Description: The native Ig λ62-10 is shown in panel A, and the heteroclitic Ig λ62-10 is show in panel B, with the shift to the right (filled in curve) in the presence of the compared to their absence (unfilled curve) indicating Ig λ62-10 peptide binding to HLA-A2 (FL1).
The inventors discovered, using Ig light chain sequencing studies with bone marrow aspirates from 264 AL amyloid subjects the relative frequency of light chain subtypes in AL amyloidosis. Selecting the over-represented light chains in AL amyliod subjects, the inventors evaluated the affinity for formation of stable complexes for the HLA-A*0201 (HLA-A2)-binding peptides using three algorithms to predict the stability of peptide-MHC class I complexes. One such subtype (lambda 6; 16% of all AL amyloidosis cases) contains a conserved framework I sequence (lambda 6 (2-10)) predicted to bind stably to HLA-A2. The inventors confirmed this prediction using a standard fluorescence assay. Subsequently, the inventors tested the ability to induce CTL capable of lysing peptide-pulsed or Ig lambda 6-expressing human B cell tumors by immunizing HLA-A2 transgenic, (HHD) mice (Firat et al, 1999) with the lambda 6 (2-10) peptide. The investigators also tested the ability of lambda 6 (2-10) peptide-induced CTL to cross-react with plasma cells expressing a related lambda light chain subtype (lambda 2). Using public web-based algorithms we identified potential immunogenic peptides from a human immunoglobulin light chain (lambda 6) which causes 16-20% of all AL amyloidosis. Culture based assays supported the likelihood that the identified peptide would be immunogenic.

[2] = test system: JY cells transfected with full length λ6 gene; test: Chromium-release killing assay with CTL from peptide-immunized HHD mice, JY cells transfected with full length λ6 gene; assay type: in vivo; details: FIG. 4
Method: as §1, §2, §3
(§5) Cell Lines: Human cell lines which naturally express the HLAA*0201 allele of MHC Class I are grown in RPMI 1640 and 10% FBS supplemented with L-glutamine. […]
as §4, with “Spleen cells are plated with targets at various effector target ratios and incubated at 37° C., 5% CO2 overnight.” left out, “release. […]” for “release.”

[3] = test system: Ig λ2-expressing U266 multiple myeloma plasma cells; test: Chromium-release killing assay with CTL from peptide-immunized HHD mice, U266 targets; assay type: ex vivo; details: FIG. 5
Method: as §1, §2, §3, §5
as §4, with “Spleen cells are plated with targets at various effector target ratios and incubated at 37° C., 5% CO2 overnight.” left out, “release. […]” for “release.”

[4] = biological target: T1, HLA-A*0201 (HLA-A2) on cells (human); test: flow cytometry, HLA-A2 fluorescence (FL1) on cells with and without peptide
T1 construct: whole, on cells; also called MHC Class I

[5] = T cells of HHD mice immunized with the peptide

With “YMLTQPHSV [het λ62-10, heteroclitic variant of lambda 6(2-10), substitution at position 1]” the “CTL lysis of peptide-pulsed target cells” value [1] was “lysed target cells pulsed with either heteroclitic λ6 peptide or the native λ6 peptide”, the “mice that produced a CTL response” value ([1]; of 8 mice immunized, FIG. 3) was 7 mice and the “peptide binding to HLA-A2” value (HLA-A2; listed as YMLTQPHSV (SEQ ID NO: 2)) was “higher affinity”. The “peptide binding to HLA-A2” value (HLA-A2; listed as heteroclitic Ig λ62-10) was “binds to HLA-A2” and the “stability of peptide/MHC complex” value (HLA-A2; FIG. 9, as early as 2 hours and over at least 24 hours) was “more stable than the native lambda 6 peptide”.

“FMLTQPHSV [λ62-10, 9mer from framework 1 of the human lambda 6 immunoglobulin light chain]” was tested, and the “CTL lysis of peptide-pulsed target cells” value [1] was “lysed target cells pulsed with the λ6 peptide”, the “mice that produced a CTL response” value ([1]; of 24 mice immunized, FIG. 2) was 17 mice and the “peptide binding to HLA-A2” value (HLA-A2) was “binds to HLA-A2”. The “CTL lysis of targets transfected with full length λ6 gene” value [2, 5] was “lysed targets transfected with the gene for the full length λ6 protein”, the “mice that produced a CTL response” value ([2]; of 16 mice immunized) was 13 mice and the “CTL lysis of U266 target cells” value [3, 5] was “lysed U266 target cells pulsed with the λ6 peptide as well as U266 cells not pulsed with a peptide”. For the same molecule, the “mice that produced a CTL response” value ([3]; of 11 mice immunized) was 8 mice.

In the case of “SLFPRLYPV (listed as Mus musculus) [mBlimp470-478, native peptide of the murine Blimp-1 protein]”, the “CTL lysis of peptide-pulsed target cells” value [1] is reported as “lysed target cells pulsed with the native murine Blimp470-478 peptide” and the “mice that produced a CTL response” value ([1]; of 12 mice immunized, FIG. 7) is reported as 10 mice.

With “YLFPRLYPV (listed as Mus musculus) [heteroclitic mBlimp470-478, heteroclitic variant of mBlimp470-478]” the “CTL lysis of peptide-pulsed target cells” value [1] was “lysed target cells pulsed with the hc murine Blimp470-478 peptide” and the “mice that produced a CTL response” value ([1]; of 10 mice immunized, FIG. 8) was 7 mice.

FMLTQPHSV (also called λ62-10; Ig λ62-10) [lambda 6(2-10) peptide]: binds [4].

B1: heteroclitic lambda 6(2-10) peptide (peptide)
peptide: YMLTQPHSV
notes: Variant of the native lambda 6(2-10) peptide with one substitution at position 1 of the 9mer; also called het λ62-10; heteroclitic Ig λ62-10
B1: binds [4].
